Test results published in patent US4374846A, “N-Amino alkyl indole compounds compositions containing same, and a method of using same in therapy of disorders of gastrointestinal motility” (Kali-Chemie Pharma GmbH, priority 1979, dated 1983).
Where two headings read alike, the source gives them in different places.

Key:
[1] = tested on: stomach (gastric peristalsis); assay: Testing of the gastric peristalsis (measurements of the gastric pressure); assay type: in vivo, rats; details: for inhibition in vivo at 20 mg/kg: Rattus norvegicus, ip, read-out: Frequency decrease in %
Source text: To determine the functioning of the gastric peristalsis, rats weighing about 200 g. are narcotized by means of ketamine hydrochloride and xylazine. A catheter is introduced into the Vena jugularis of the narcotized rats and a tracheal catheter into their trachea. A stomach probe is inserted into their stomach and tied thereto. Said probe is connected via a three-way cock with a Statham pressure imparting device (P 23 DB). The stomach is sealed off by a ligature at the pylorus and at the cardia. The stomach is filled with 3 ml. of an 0.9% aqueous sodium chloride solution. The pressure waves produced by the stomach are continuously registered by a suitable recording device such as by a Watanabe Multicorder (MC 641). In order to determine the effect of the compounds to be tested, they are dissolved in physiological sodium chloride solution or are suspended in Tylose MH 50 solution. Said solutions or suspensions are administered intraperitoneally to the rats in a dosis of 20 mg./kg. The amplitudes and frequencies of the pressure wave-like movements of the stomach as they occur before and after administration of the compound to be tested, are compared.

[2] = Determination of the acute toxicity (seven-day, single intraperitoneal dose); details: in vivo, ip, white NMRI mouse, fasting, single i.p. dose, probit analysis
Procedure: The acute seven-day toxicity is determined by intraperitoneal administration of a single dose of the respective compound to a fasting white NMRI mouse. The LD50 -values are calculated via EDV by a probit analysis as described in the book "Grundbegriffe der Biometrie" (Basic biometrical definitions) by L. Cavalli-Sforza, page 153 et seq., published by Gustav Fischer Verlag, Stuttgart, 1964.

[3] = gastric pressure waves, narcotized rats, 20 mg./kg. intraperitoneally, before vs after administration

Structure (SMILES)	inhibition in vivo at 20 mg/kg [1, 3]	Factor of the increase in amplitude [1, 3]	LD50 at 168 h [2]	inhibition in vivo at 20 mg/kg [1]
COC(=O)c1c(OC)c2ccccc2n1CCN(C)C.Cl [(A), 1-(β-Dimethylaminoethyl)-2-methoxy carbonyl-3-methoxy-indole hydrochloride]	3.3%	6.2	171 mg/kg	
COC(=O)c1c(OC)c2ccc(C)cc2n1CCN(C)C.Cl [(B), 1-(β-dimethylaminoethyl)-2-methoxy carbonyl-3-methoxy-6-methyl indole hydrochloride]	7%	22.7	68 mg/kg	
CCOc1c(C(=O)OC)n(CCN(C)C)c2ccc(Cl)cc12.Cl [(C), 1-(β-dimethylaminoethyl)-2-methoxy carbonyl-3-ethoxy-5-chloro indole hydrochloride]	9%	1.4	141 mg/kg	
COC(=O)c1c(OC(C)C)c2cc(C)ccc2n1CCN(C)C.Cl [(D), 1-(β-dimethylaminoethyl)-2-methoxy carbonyl-3-isopropyloxy-5-methyl indole hydrochloride]	19%	6.9	137 mg/kg	
COC(=O)c1c(OCc2ccccc2)c2cc(Cl)ccc2n1CCN(C)C.Cc1ccc(S(=O)(=O)O)cc1 [(E), 1-(β-dimethylaminoethyl)-2-methoxy carbonyl-3-benzyloxy-5-chloroindole toluene-4-sulfonate]		0.6	283 mg/kg	-2%
CCOC(=O)c1c(OCC)c2ccc(Cl)cc2n1CCN(C)C.Cc1ccc(S(=O)(=O)O)cc1 [(F), 1-(β-dimethylaminoethyl)-2-ethoxy carbonyl-3-ethoxy-6-chloro indole toluene-4-sulfonate]		10.9	226 mg/kg	5%
COC(=O)c1c(OC)c2ccccc2n1CCCNC(C)C.Cl [(G), 1-(γ-isopropylaminopropyl)-2-methoxy carbonyl-3-methoxy indole hydrochloride]	29%	8.3	91 mg/kg	
COC(=O)c1c(OC)c2ccccc2n1CCCCN(C)C.Cc1ccc(S(=O)(=O)O)cc1 [(H), 1-(δ-dimethylaminobutyl)-2-methoxy carbonyl-3-methoxy indole toluene-4-sulfonate]		3.5	164 mg/kg	11%
COC(=O)c1c(OC)c2ccccc2n1CCCN1CCCCC1 [(I), 1-(γ-N-piperidinopropyl)-2-methoxy carbonyl-3-methoxy indole maleinate]	15%	8.6	141 mg/kg	
COc1c(C(=O)O)n(CCN(C)C)c2ccccc12 [(K), 1-(β-dimethylaminoethyl)-2-hydroxy carbonyl-3-methoxy indole]	21%	3.6	967 mg/kg	
COc1c(C(N)=O)n(CCN(C)C)c2ccccc12 [(L), 1-(β-dimethylaminoethyl)-2-amino carbonyl-3-methoxy indole]	28%	13.9	68 mg/kg	
CNC(=O)c1c(OC)c2ccccc2n1CCN(C)C [(M), 1-(β-dimethylaminoethyl)-2-methylamino carbonyl-3-methoxy indole]	13%	21.4	68 mg/kg	
